According to ChEMBL document CHEMBL5729210, “Benzodiazepine derivatives as RSV inhibitors” (2022):

Experiment: RSV-A Assay: The description is Japanese.

`O=C1Nc2ccccc2C(c2ccccc2)=N[C@@H]1Nc1nnc(-c2nc(C3CCC3)sc2N2CCOCC2)o1` and `O=C1Nc2ccccc2C(c2ccccc2)=N[C@@H]1Nc1nnc(-c2nc(C3(C(F)(F)F)CCC3)sc2N2CCOCC2)o1` cannot be ordered by EC50: less than 400 nM for the first, less than 400 nM for the second.

`O=C1Nc2ccccc2C(c2ccccc2)=NC1Nc1nnc(-c2c(F)cc(N3CCOCC3)cc2F)o1` (configuration not stated) and `O=C1Nc2ccccc2C(c2ccccc2)=N[C@H]1Nc1nnc(-c2ccc(N3CCOCC3)cc2)o1` cannot be ordered by EC50: greater than 800 nM for the first, greater than 800 nM for the second.

`O=C1Nc2ccccc2C(c2ccccc2)=N[C@@H]1Nc1nnc(-c2ncc(C(F)(F)F)cc2N2CCC(O)CC2)o1` and `COC1CCN(c2cc(C(F)(F)F)cnc2-c2nnc(N[C@H]3N=C(c4ccccc4)c4ccccc4NC3=O)o2)CC1` cannot be ordered by EC50: greater than 800 nM for the first, greater than 800 nM for the second.

`O=C1Nc2ccccc2C(c2ccccc2)=NC1Nc1nc2ccccc2s1` (configuration not stated) and `O=C1Nc2ccccc2C(c2ccccc2)=NC1Nc1ncc2ccccc2n1` (configuration not stated) cannot be ordered by EC50: greater than 800 nM for the first, greater than 800 nM for the second.

Compared with `O=C1Nc2ccccc2C(c2ccccc2)=NC1Nc1nnc(-c2ccc(-n3cccn3)cc2N2CCOCC2)o1` (configuration not stated), `O=C1Nc2ccccc2C(c2ccccc2)=NC1Nc1nnc(-c2ccccc2N2CCCOCC2)o1` (configuration not stated) is higher in EC50: less than 400 nM for the first, greater than 800 nM for the second. The first is the more potent here.

Compared with `N#CCCNc1cc(C(F)(F)F)cnc1-c1nnc(N[C@H]2N=C(c3ccccc3)c3ccccc3NC2=O)o1`, `O=C1Nc2ccccc2C(c2ccccc2)=N[C@@H]1Nc1nnc(-c2ncc(C(F)(F)F)cc2NCc2ccco2)o1` is higher in EC50: less than 400 nM for the first, greater than 800 nM for the second.

`CC(C)(c1nc(-c2nnc(N[C@H]3N=C(c4ccccc4)c4ccccc4NC3=O)o2)c(N2CCOCC2)s1)N1CCOCC1` and `N#Cc1cnc(-c2nnc(NC3N=C(c4ccccc4)c4ccccc4NC3=O)o2)c(N2CCOCC2)c1` (configuration not stated) cannot be ordered by EC50: less than 400 nM for the first, less than 400 nM for the second.

`O=C1Nc2ccccc2C(c2ccccc2)=NC1Nc1nnc(-c2ccccc2C2=CCOCC2)o1` (configuration not stated) and `O=C1Nc2ccccc2C(c2ccccc2)=NC1Nc1nnc(-c2ccccc2F)o1` (configuration not stated) cannot be ordered by EC50: greater than 800 nM for the first, greater than 800 nM for the second.

Going from `NNC(=O)c1ccc(N2CCOCC2)cc1C(F)(F)F` to `CCOC(=O)c1ccc(F)cc1N1CCOCC1`, the EC50 falls from greater than 800 nM to less than 400 nM.

Compared with `O=C1Nc2ccccc2C(c2ccccc2)=N[C@H]1Nc1nnc(-c2ccc(F)cc2)o1`, `O=C1Nc2ccccc2C(c2ccccc2)=NC1Nc1nnc(-c2ccc(Cl)cc2)o1` (configuration not stated) is lower in EC50: greater than 800 nM for the first, less than 400 nM for the second.

`O=C1Nc2ccccc2C(c2ccccc2)=NC1Nc1nnc(-c2cncnc2)o1` (configuration not stated) and `O=C1Nc2ccccc2C(c2ccccc2)=NC1Nc1nnc(-c2ccncn2)o1` (configuration not stated) cannot be ordered by EC50: greater than 800 nM for the first, greater than 800 nM for the second.

`CO[C@@H]1COC[C@H]1Nc1cc(C(F)(F)F)cnc1-c1nnc(N[C@H]2N=C(c3ccccc3)c3ccccc3NC2=O)o1` and `C[C@@H]1COCCN1c1cc(C(F)(F)F)cnc1-c1nnc(N[C@H]2N=C(c3ccccc3)c3ccccc3NC2=O)o1` cannot be ordered by EC50: less than 400 nM for the first, less than 400 nM for the second.

Compared with `O=C1Nc2ccccc2C(c2ccccc2)=N[C@@H]1Nc1nnc(-c2nc(C(F)(F)F)sc2N2CCO[C@@H]3C[C@@H]32)o1`, `O=C1Nc2ccccc2C(c2ccccc2)=N[C@@H]1Nc1nnc(-c2ncc(C(F)(F)F)cc2N2CCOC3CC32)o1` (some centres not stated) is lower in EC50: greater than 800 nM for the first, less than 400 nM for the second.

`C#Cc1nc(C(=O)O)c(N2CCOCC2)s1` and `COC(=O)c1nc(Br)sc1N1CCOCC1` cannot be ordered by EC50: less than 400 nM for the first, less than 400 nM for the second.

`C[C@H]1CN(c2cc(C(F)(F)F)cnc2-c2nnc(N[C@H]3N=C(c4ccccc4)c4ccccc4NC3=O)o2)CCO1` and `C[C@H]1CN(c2cc(C#N)cnc2-c2nnc(N[C@H]3N=C(c4ccccc4)c4ccccc4NC3=O)o2)CCO1` cannot be ordered by EC50: less than 400 nM for the first, less than 400 nM for the second.

`COCc1cccc(-c2nnc(NC3N=C(c4ccccc4)c4ccccc4NC3=O)o2)n1` (configuration not stated) and `COc1ccc(-c2nnc(NC3N=C(c4ccccc4)c4ccccc4NC3=O)o2)nc1Cl` (configuration not stated) cannot be ordered by EC50: greater than 800 nM for the first, greater than 800 nM for the second.

`COC(=O)c1ccc(Cl)nc1N1CCOCC1` and `CCOC(=O)c1cnc(C2CC2)nc1N1CCOCC1` cannot be ordered by EC50: less than 400 nM for the first, less than 400 nM for the second.

Going from `O=C1Nc2ccccc2C(c2ccccc2)=NC1Nc1nnc(-c2cc(C(F)(F)F)cnc2N2CCOCC2)o1` (configuration not stated) to `O=C1Nc2ccccc2C(c2ccccc2)=NC1Nc1nnc(-c2ccc(C(F)(F)F)cc2N2CCOCC2)o1` (configuration not stated), the EC50 falls from greater than 800 nM to less than 400 nM.

`CCOC(=O)c1ncc(C(F)(F)F)cc1N` and `CCOC(=O)c1c(F)cc(F)cc1F` cannot be ordered by EC50: greater than 800 nM for the first, greater than 800 nM for the second.

`CC1(C)C[C@@H]1c1nnc(NC2N=C(c3ccccc3)c3ccccc3NC2=O)o1` (some centres not stated) and `O=C1Nc2ccccc2C(c2ccccc2)=NC1Nc1nnc(C2CCOC2)o1` (configuration not stated) cannot be ordered by EC50: greater than 800 nM for the first, greater than 800 nM for the second.

Going from `O=C1Nc2ccccc2C(c2ccccc2)=NC1Nc1nnc(-c2cccnc2N2CCCC(F)(F)C2)o1` (configuration not stated) to `O=C1Nc2ccccc2C(c2ccccc2)=N[C@@H]1Nc1nnc(-c2cccnc2N2CCOCC2)o1`, the EC50 falls from greater than 800 nM to less than 400 nM.

`COc1cnc(-c2nnc(NC3N=C(c4ccccc4)c4ccccc4NC3=O)o2)c(F)c1` (configuration not stated) and `COc1cccc(-c2nnc(NC3N=C(c4ccccc4)c4ccccc4NC3=O)o2)c1` (configuration not stated) cannot be ordered by EC50: greater than 800 nM for the first, greater than 800 nM for the second.

`COC[C@H]1CCCN1c1sc(C(F)(F)F)nc1-c1nnc(N[C@H]2N=C(c3ccccc3)c3ccccc3NC2=O)o1` and `COC[C@@H]1CCCN1c1sc(C(F)(F)F)nc1-c1nnc(N[C@H]2N=C(c3ccccc3)c3ccccc3NC2=O)o1` cannot be ordered by EC50: greater than 800 nM for the first, greater than 800 nM for the second.

`O=C1Nc2ccccc2C(c2ccccc2)=NC1Nc1nnc(-c2cnccc2N2CCCCC2)o1` (configuration not stated) and `C[C@@H]1CN(c2ncccc2-c2nnc(NC3N=C(c4ccccc4)c4ccccc4NC3=O)o2)CCO1` (some centres not stated) cannot be ordered by EC50: greater than 800 nM for the first, greater than 800 nM for the second.

`N#CC1CN(c2ncccc2-c2nnc(NC3N=C(c4ccccc4)c4ccccc4NC3=O)o2)C1` (configuration not stated) and `O=C1Nc2ccccc2C(c2ccccc2)=NC1Nc1nnc(-c2cccnc2N2C[C@@H]3C[C@H]2CO3)o1` (some centres not stated) cannot be ordered by EC50: greater than 800 nM for the first, greater than 800 nM for the second.

`O=C1Nc2ccccc2C(c2ccccc2)=NC1Nc1ncc(-c2ccc(F)cc2)o1` (configuration not stated) and `COCCNc1ccc(-c2nnc(NC3N=C(c4ccccc4)c4ccccc4NC3=O)o2)cc1` (configuration not stated) cannot be ordered by EC50: greater than 800 nM for the first, greater than 800 nM for the second.

`O=C1Nc2ccccc2C(c2ccccc2)=NC1Nc1nnc(C2CC3(CCNCC3)C2)o1` (configuration not stated) and `O=C1Nc2ccccc2C(c2ccccc2)=NC1Nc1nnc([C@H]2COCCN2)o1` (some centres not stated) cannot be ordered by EC50: greater than 800 nM for the first, greater than 800 nM for the second.

Going from `O=C1Nc2ccccc2C(c2ccccc2)=NC1Nc1nnc(-c2cc[nH]c(=O)c2)o1` (configuration not stated) to `O=C1Nc2ccccc2C(c2ccccc2)=NC1Nc1nnc(-c2ccnc(F)c2)o1` (configuration not stated), the EC50 falls from greater than 800 nM to less than 400 nM.

Going from `O=C1Nc2ccccc2C(c2ccccc2)=NC1Nc1nnc(-c2ccc(N3CCOCC3)cn2)o1` (configuration not stated) to `N#Cc1cnc(N2CCOCC2)c(-c2nnc(N[C@H]3N=C(c4ccccc4)c4ccccc4NC3=O)o2)c1`, the EC50 falls from greater than 800 nM to less than 400 nM. The second is the more potent here.

Going from `Cc1ccc(-c2nnc(N[C@H]3N=C(c4ccccc4)c4ccccc4NC3=O)o2)c(N2C3CCC2COC3)n1` to `Cc1ccc(-c2nnc(NC3N=C(c4ccccc4)c4ccccc4NC3=O)o2)o1` (configuration not stated), the EC50 rises from less than 400 nM to greater than 800 nM.

`O=C1Nc2ccccc2C(c2ccccc2)=N[C@@H]1Nc1nnc(-c2nc3ccccc3nc2N2CCOCC2)o1` and `O=C1Nc2ccccc2C(c2ccccc2)=N[C@@H]1Nc1nnc(-c2ccc(C(F)(F)F)cc2N2CCOCC2)o1` cannot be ordered by EC50: less than 400 nM for the first, less than 400 nM for the second.

Compared with `O=C1Nc2c(F)cccc2C(c2ccccc2)=N[C@H]1Nc1nnc(-c2ncc(C(F)(F)F)cc2N2CCOCC2)o1`, `O=C1Nc2ccccc2C(c2ccccc2)=N[C@@H]1Nc1nnc(-c2ncc(C(F)(F)F)cc2N2CCOc3ccccc32)o1` is higher in EC50: less than 400 nM for the first, greater than 800 nM for the second. The first is the more potent here.

`N#Cc1ccc(-c2nnc(N[C@H]3N=C(c4ccccc4)c4ccccc4NC3=O)o2)c(-c2ccoc2)c1` and `N#Cc1ccc2nccc(-c3nnc(N[C@H]4N=C(c5ccccc5)c5ccccc5NC4=O)o3)c2c1` cannot be ordered by EC50: greater than 800 nM for the first, greater than 800 nM for the second.

Compared with `Cc1nc(-c2nnc(N[C@H]3N=C(c4ccccc4)c4ccccc4NC3=O)o2)c(C2=CCOCC2)s1`, `O=C1Nc2ccccc2C(c2ccccc2)=NC1Nc1nnc(-c2nccs2)o1` (configuration not stated) is higher in EC50: less than 400 nM for the first, greater than 800 nM for the second.

`CN1C(=O)C(Nc2nnc(-c3ccc(F)cc3)o2)N=C(c2ccccc2)c2ccccc21` (configuration not stated) and `CN(c1nnc(-c2ccc(F)cc2)o1)C1N=C(c2ccccc2)c2ccccc2NC1=O` (configuration not stated) cannot be ordered by EC50: greater than 800 nM for the first, greater than 800 nM for the second.

`O=C1Nc2ccccc2C(c2ccccc2)=NC1Nc1nnc(-c2cc3cccnc3s2)o1` (configuration not stated) and `N#Cc1cc(-c2nnc(NC3N=C(c4ccccc4)c4ccccc4NC3=O)o2)ccn1` (configuration not stated) cannot be ordered by EC50: greater than 800 nM for the first, greater than 800 nM for the second.

`COC1C2CNCC21` (configuration not stated) and `O=C1Nc2ccccc2C(c2ccccc2)=NC1Nc1nnc(-c2ccc(OC3CCOCC3)cc2)o1` (configuration not stated) cannot be ordered by EC50: greater than 800 nM for the first, greater than 800 nM for the second.

`CN(C)Cc1ccc(-c2nnc(NC3N=C(c4ccccc4)c4ccccc4NC3=O)o2)o1` (configuration not stated) and `CC(C)(Cc1ccccc1)c1nnc(NC2N=C(c3ccccc3)c3ccccc3NC2=O)o1` (configuration not stated) cannot be ordered by EC50: greater than 800 nM for the first, greater than 800 nM for the second.

`O=C1Nc2ccccc2C(c2ccccc2)=NC1Nc1nnc(-c2ccccc2-n2cccn2)o1` (configuration not stated) and `Cc1cc(-n2cncn2)ccc1-c1nnc(NC2N=C(c3ccccc3)c3ccccc3NC2=O)o1` (configuration not stated) cannot be ordered by EC50: greater than 800 nM for the first, greater than 800 nM for the second.

`COc1ccn2ncc(-c3nnc(N[C@H]4N=C(c5ccccc5)c5ccccc5NC4=O)o3)c2c1` and `O=C1Nc2ccccc2C(c2ccccc2)=N[C@@H]1Nc1nnc(-c2cccnc2N2CCn3ncnc3C2)o1` cannot be ordered by EC50: greater than 800 nM for the first, greater than 800 nM for the second.

`COc1ccc(CN2C(=O)C(C)(N=[N+]=[N-])N=C(c3ccccc3)c3ccccc32)cc1` (configuration not stated) and `O=C1Nc2ccccc2C(c2ccccc2)=NC1Nc1ccc(-c2ccncc2)nn1` (configuration not stated) cannot be ordered by EC50: greater than 800 nM for the first, greater than 800 nM for the second.

`O=C1Nc2ccccc2C(c2ccccc2)=NC1Nc1ccnc(-c2ccccc2)n1` (configuration not stated) and `C[C@@H]1CN(c2ccc(-c3nnc(N[C@H]4N=C(c5ccccc5)c5ccccc5NC4=O)o3)c(Cl)c2)C[C@H](C)O1` cannot be ordered by EC50: greater than 800 nM for the first, greater than 800 nM for the second.

In the case of `O=C1Nc2ccccc2C(c2ccccc2)=NC1Nc1nnc(-c2cc(F)ccc2N2CCOCC2)o1` (configuration not stated), the EC50 is reported as “in the range around 600 nM”.
For `O=C1Nc2ccccc2C(c2ccccc2)=N[C@@H]1Nc1nnc(-c2ccc(F)cc2)o1`, the EC50 was “in the range around 600 nM”.
With `CCOC(=O)c1cnn2c1N(CCOC)CCC2` the EC50 was “in the range around 600 nM”.
With `Cc1nsc(N2CCOCC2)c1-c1nnc(N[C@H]2N=C(c3ccccc3)c3ccccc3NC2=O)o1` the EC50 was “in the range around 600 nM”.
For `COc1ccc(CN2C(=O)C(Nc3ccc(-c4ccccc4)nn3)N=C(c3ccccc3)c3ccccc32)cc1` (configuration not stated), the EC50 was “in the range around 600 nM”.
For `O=C1Nc2ccccc2C(c2ccccc2)=NC1Nc1nnc(-c2ccc(C(F)(F)F)nc2N2CCOCC2)o1` (configuration not stated), the EC50 was “in the range around 600 nM”.
With `O=C1Nc2ccccc2C(c2ccccc2)=NC1Nc1nnc(-c2cccnc2N2CC3CCC(C2)O3)o1` (configuration not stated) the EC50 was “in the range around 600 nM”.
In the case of `CN1CCN(c2cc(C(F)(F)F)cnc2-c2nnc(N[C@H]3N=C(c4ccccc4)c4ccccc4NC3=O)o2)CC1`, the EC50 is reported as “in the range around 600 nM”.
